Experimental data published in patent US11415493B2, “Detection of cells in a liquid sample” (DELTA INSTRUMENTS B.V., priority 2016, dated 2022).
“Also recorded” adds a separate entry of the source.

Assays:
[1] = tested on: E. coli in raw milk; assay: GelGreen raw milk treatment staining protocol, flow cytometry; type: cell-based, Escherichia coli; settings: raw milk diluted in Tris-buffered saline pH 8.5, approximately 50 to 60° C.
Experimental: To show how the FL1, FL2 signals look like in un-spiked raw milk, low bacterial count raw milk was analyzed. The locally obtained raw milk (generally from a farm) has a very low bacteria count ranging from 1000 to 50,000 CFU per mL. The staining composition comprising GelGreen™ as the nucleic acid dye was prepared in the same way as in Example 1, except that the protease Savinase® 16L (from Novozymes) was added in an amount of 1.92×10^3 NPU/ml, where NPU is “Novo Protease Unit which is the same as Anson unit (AU). […] The sample with the staining composition was incubated at approximately 50° C. for approximately 4 to 5 min; the sample was again sonicated for approximately 5 seconds and finally the sample was analyzed on the flow cytometer and the fluorescent signals from the bacteria were detected and a count per unit volume was determined.
A small volume of raw milk was processed and analyzed following this GelGreen™ raw milk treatment staining method protocol (FIG. 38). To show the FL1 and FL2 signals for spiked raw milk, a known number of E. coli were placed into a known volume of the same raw milk and kept at 4° C. until treated, stained and analyzed on the flow cytometer. The raw milk with E. coli was processed and analyzed using the same GelGreen™ raw milk treatment staining method protocol. […]

[2] = tested on: bacteria in raw milk; assay: IBC in raw milk samples at different pH settings, flow cytometer; type: cell-based
[3] = tested on: bacteria in raw milk; assay: IBC in 24 h old raw bulk milk, staining composition with Savinase, flow cytometer; type: cell-based; settings: 68° C., 1 minute
Experimental: To verify this method with Savinase®, locally obtained raw bulk tank milk from a dairy plant was collected. […] An amount of 200 μl bacterial culture is added to a 45 ml volume of 24 h old raw bulk milk and kept at 4° C. until analyzed. The staining composition comprising GelGreenTM as the nucleic acid dye was prepared in the same way as in Example 5, except that the Alcalase® protease was replaced by 0.12 KNPU/ml Savinase® […] protease (from Novozymes). 200 μl of unheated raw milk is diluted with the 1800 μl staining composition and incubated at approximately 68° C. for 1 minute; the sample is sonicated for 5 seconds at 40 kHz in the before and after the incubation step and analyzed on the flow cytometer; the fluorescent signals from the bacteria were detected and a count per unit volume was determined. Traditional plate counts were used to obtain a bacterial reference count. As used herein, the term “traditional plate counts”, refers to Petrifilm Aerobic Count Plates (AOAC Official Method 986.33). The LOG of individual bacterial count (IBC)/ml from 24 h raw milk in the flow cytometer is 5.61, the LOG of CFU/ml petrifilm is 4.83. The LOG of IBC from 24 h raw milk spiked with E. coli LOG in the flow cytometer is 6.48. The LOG of CFU/ml petrifilm is 6.69.

[4] = tested on: bacteria in raw milk; assay: IBC in raw milk samples at different temperature settings, flow cytometer; type: cell-based
Experimental: The nucleic acid dyes, Evagreen®, SYTOX® Green and Propidium iodide where tested against GelGreen™ (the reference method). […] Nucleic acid dyes Evagreen®, SYTOX® Green and propidium iodide were tested using the same staining and incubation conditions as for the reference method only differing in the type of dye comprised in the staining composition. Evagreen® was used at a concentration of 1.25 μM in the staining composition. SYTOX® Green and Propidium iodide were used at a concentration of 5 μM in the staining composition. Three different types of milk were used: Locally obtained raw bulk tank milk from a farm and dairy plant where collected at a local farmer. This milk is referred to as fresh raw milk and is not older than 24 hours. 24 hour and 48 hour old milk were obtained from a dairy plant. […] For this purpose E. coli was grown overnight (approx. 15 h) in TSB at 32° C. The dead bacterial where obtained by heating the grown E. coli at 110° C. for 10 minutes. […] All the milk samples are kept at 4° C. until analyzed. […] Finally, the samples were analyzed on the flow cytometer and the fluorescent signals from the bacteria were detected and a count per unit volume was determined. […]
From example 5 it is already clear that temperatures lower than the optimal settings result in decreased DNA staining and so bacteria counting performance. […] Milk samples were kept at 4° C. until analyzed. […]

[5] = tested on: Listeria monocytogenes, Staphylococcus aureus, Bacillus cereus, Pseudomonas aeruginosa, Escherichia coil; assay: Validation of flow cytometry counts versus Petrifilm CFU in raw milk spiked with gram positive and gram negative bacteria; type: cell-based; settings: raw milk with individual bacterial cultures
Excerpt: A selection of gram negative and gram positive bacteria were chosen to be placed into raw milk and processed and analyzed following the GelGreen™ raw milk treatment staining protocol as disclosed in example 2. The gram positive organisms selected were Listeria monocytogenes (Lm), Staphylococcus aureus (Sa), and Bacillus cereus (Bc). The gram negative organisms selected were Pseudomonas aeruginosa (Pa) and Escherichia coil (Ec). Different concentrations of each culture were placed into a sample of raw milk and kept at 4° C. until processed. Each sample of raw milk with an individual bacterial culture was processed and analyzed following the GelGreen™ protocol as described in example 2. Each sample of raw milk with an individual bacterial culture was appropriately diluted in Butterfield's PBS and 1 mL was plated on Petrifilms in duplicate and CFU/mL were obtained. The resulting Log FCM counts per mL were plotted against the Log Petrifilm CFU per mL.

CN(C)c1ccc2cc3ccc(N(C)C)cc3[n+](CCCCCC(=O)NCCCOCCOCCOCCCNC(=O)CCCCC[n+]3c4cc(N(C)C)ccc4cc4ccc(N(C)C)cc43)c2c1.[I-].[I-] [GelGreen™]
staining of bacterial cells in raw milk [1]: clear population of E. coli was identified; also recorded: bacterial cells being stained | IBC higher compared to the reference method (pH 10.6) ([2]; pH 7.0, fresh milk): more than 1.5 million counts per ml | IBC compared to the reference method (pH 10.6) ([2]; pH 8.7): comparable with the reference method | LOG of IBC in the flow cytometer ([3]; 24 h raw milk spiked with E. coli): 6.48 | LOG of individual bacterial count (IBC)/ml in the flow cytometer ([3]; 24 h raw milk): 5.61 | IBC compared to the 68° C. based reference method ([4]; 40° C., fresh spiked milk): way too low | IBC compared to the 68° C. based reference method ([4]; 90° C., all the samples): slightly higher | relationship of Log FCM counts per mL versus Log Petrifilm CFU per mL [5]: overall linear relationship
